Source: US9109041B2, “Analog compounds of analgesic peptides derived from the venom of crotalus durissus terrificus snakes, their uses, compositions, methods of preparation and purification” (priority 2004, dated 2015)
Bridges are numbered along the chain shown (N, C = ends). Where no end group is shown, it is not given here. [ ]: non-standard residue; d: D form. pGlu = O=C1CC[C@@H](C(=O)O)N1

System: prostaglandin E2-induced hyperalgesia
Assay: rat paw pressure test, prostaglandin E2-induced hyperalgesia
Conditions: for pain threshold, FM (g) ± S.E.M: 3 h after PGE2 100 ng/paw i.pl.; for analgesic activity: synthetic peptides compared with natural ENPAK-k, similar conditions
[1] = oral route, reversal of PGE2-induced hyperalgesia, CurveExpert 1.3

Q: Which results are given for `CN1CC[C@]23c4c5ccc(O)c4O[C@H]2[C@@H](O)C=C[C@H]3[C@H]1C5` [Morphine, reference compound]?
A: pain threshold, FM (g) ± S.E.M (morphine 0.004 μg/kg p.o.): 69 ± 1.87 g; pain threshold, IM (g) ± S.E.M. (morphine 0.004 μg/kg p.o., before PGE2): 77 ± 1.22 g; pain threshold, FM (g) ± S.E.M (morphine 0.2 μg/kg p.o.): 70 ± 1.58 g; pain threshold, IM (g) ± S.E.M. (morphine 0.2 μg/kg p.o., before PGE2): 76 ± 1.87 g; pain threshold, FM (g) ± S.E.M (morphine 1 μg/kg p.o.): 85 ± 1.58 g; pain threshold, IM (g) ± S.E.M. (morphine 1 μg/kg p.o., before PGE2): 78 ± 1.22 g; pain threshold, FM (g) ± S.E.M (morphine 5 μg/kg p.o.): 109 ± 1.87 g; pain threshold, IM (g) ± S.E.M. (morphine 5 μg/kg p.o., before PGE2): 78 ± 1.22 g; 50% effective dose [1]: 0.05515 µg/kg; 90% effective dose [1]: 0.3267 µg/kg

Q: What does the source list for “SEQ ID NO: 3: one of 4 possible sequences pGlu-Phe-Ser-Pro-Glu-Asn-Cys-Lys/Gln-Gly-Glu-Ser-Lys/Gln-Pro-Cys; modified synthetic peptide (XFSPENCQGESKPC; Synthetically generated peptide)”?
A: pain threshold, FM (grams) ± S.E.M. (p.o., 2 ml of solution (peptide diluted in 11 ml of saline), 3 hours after PGE2 100 ng/paw i.pl.): 110 ± 2.74 grams; pain threshold, IM (grams) ± S.E.M. (p.o., 2 ml of solution (peptide diluted in 11 ml of saline), before PGE2): 76 ± 1.00 grams; analgesic activity: demonstrated analgesic activity

Q: How did the analgesic activity turn out when “SEQ ID NO: 6: one of 4 possible sequences pGlu-Phe-Ser-Pro-Glu-Asn-Cys-Lys/Gln-Gly-Glu-Ser-Lys/Gln-Pro-Cys; synthetic peptide (XFSPENCKGESQPC; Synthetically generated peptide)” was run?
A: Its analgesic activity is “inactivity”.

Q: With “SEQ ID NO: 7: one of 4 possible sequences pGlu-Phe-Ser-Pro-Glu-Asn-Cys-Lys/Gln-Gly-Glu-Ser-Lys/Gln-Pro-Cys; synthetic peptide ([pGlu]FSPENCKGESKPC; disulfide 7-14)” as the molecule, how does the analgesic activity read?
A: The analgesic activity was “inactivity”.
